Results: US20100056527A1, “BENZOFURAN COMPOUNDS USEFUL IN THE TREATMENT OF CONDITIONS MEDIATED BY THE ACTION OF PGE2 AT THE EP1 RECEPTOR” (Glaxo Group Limited, priority 2007, published 2010)

target: T1, human EP1 receptor (Homo sapiens, UniProt P34995); assay: human EP1 calcium mobilization assay (FLIPR, PGE2-induced [Ca2+]i); type: cell-based; details: CHO-K1 cells transfected with EP1 cDNA; antagonism of PGE2; averages of a number of experiments
T1 construct: expressed in transfected cells; host or cells: CHO-K1 cells (membrane fraction)
T1 sequence (P34995 1-402): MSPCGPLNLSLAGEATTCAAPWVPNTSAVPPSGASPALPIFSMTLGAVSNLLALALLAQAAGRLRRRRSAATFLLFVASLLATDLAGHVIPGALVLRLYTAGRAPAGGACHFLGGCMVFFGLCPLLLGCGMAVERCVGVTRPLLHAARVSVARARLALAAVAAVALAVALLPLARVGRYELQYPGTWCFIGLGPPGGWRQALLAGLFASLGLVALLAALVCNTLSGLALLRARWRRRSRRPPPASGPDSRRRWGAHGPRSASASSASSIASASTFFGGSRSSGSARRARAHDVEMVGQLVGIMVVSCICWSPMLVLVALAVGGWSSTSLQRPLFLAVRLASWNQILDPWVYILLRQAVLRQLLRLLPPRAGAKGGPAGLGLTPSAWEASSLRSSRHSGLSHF
Method: Briefly, the antagonist properties of compounds are assessed by their ability to inhibit the mobilization of intracellular calcium ([Ca^2+]i) in response to activation of EP1 or EP3 receptors by the natural agonist hormone prostaglandin E2 (PGE2). Increasing concentrations of antagonist reduce the amount of calcium that a given concentration of PGE2 can mobilize. The net effect is to displace the PGE2 concentration-effect curve to higher concentrations of PGE2. The amount of calcium produced is assessed using a calcium-sensitive fluorescent dye such as Fluo-4, AM and a suitable instrument such as a Fluorimetric Imaging Plate Reader (FLIPR). Increasing amounts of [Ca^2+]i produced by receptor activation increase the amount of fluorescence produced by the dye and give rise to an increasing signal. The signal may be detected using the FLIPR instrument and the data generated may be analyzed with suitable curve-fitting software.
The human EP1 or EP3 calcium mobilization assay (hereafter referred to as ‘the calcium assay’) utilises Chinese hamster ovary-K1 (CHO—K1) cells into which a stable (PClN; BioTechniques 20 (1996): 102-110) vector containing either EP1 or EP3 cDNA has previously been transfected. Cells are cultured in suitable flasks containing culture medium such as DMEM:F-12 supplemented with 10% v/v foetal calf serum, 2 mM L-glutamine, 0.25 mg/ml geneticin, 100 μM flurbiprofen and 10 μg/ml puromycin.
For assay, cells are harvested using a proprietary reagent that dislodges cells such as Versene. Cells are re-suspended in a suitable quantity of fresh culture media for introduction into a 384-well plate. Following incubation for 24 hours at 37° C. the culture media is replaced with a medium containing Fluo-4 and the detergent pluronic acid, and a further incubation takes place. Concentrations of compounds are then added to the plate in order to construct concentration-effect curves. This may be performed on the FLIPR in order to assess the agonist properties of the compounds. Concentrations of PGE2 are then added to the plate in order to assess the antagonist properties of the compounds.
The data so generated may be analyzed by means of a computerised curve-fitting routine. The concentration of compound that elicits a half-maximal inhibition of the calcium mobilization induced by PGE2 (pIC50) may then be estimated.
The compounds of Examples 1-28 and 30-156 were tested in the human EP1 calcium mobilization assay. The results are expressed as functional pKi values. A functional pKi is the negative logarithms of the antagonist dissociation constant as determined in the human EP1 calcium mobilization assay. The results given are averages of a number of experiments.

| Compound | functional pKi in the human EP1 calcium mobilization assay |
| --- | --- |
| Cl.N#Cc1ccc(-c2cc3cc(Cl)cc(Cc4ccc(C(=O)NCC5CCNCC5)o4)c3o2)cc1 [Example 37, 5-{[5-Chloro-2-(4-cyanophenyl)-1-benzofuran-7-yl]methyl}-N-(4-piperidinylmethyl)-2-furancarboxamide hydrochloride] | did not show activity |
| Cc1cc(C(=O)Nc2ccncc2)nn1Cc1cc(Cl)cc2cc(-c3ccccc3)oc12 [Example 68, 1-[(5-chloro-2-phenyl-1-benzofuran-7-yl)methyl]-5-methyl-N-4-pyridinyl-1H-pyrazole-3-carboxamide] | did not show activity |
| Cc1cc(C(=O)NC(C)(C)C)nn1Cc1cc(Cl)cc2cc(-c3ccc(F)cc3F)oc12 [Example 112, 1-{[5-chloro-2-(2,4-difluorophenyl)-1-benzofuran-7-yl]methyl}-N-(1,1-dimethylethyl)-5-methyl-1H-pyrazole-3-carboxamide] | did not show activity |
| CC(C)(C)OC(=O)Nc1ccc(Cc2cc(Cl)cc3cc(-c4ccccc4)oc23)o1 [Example 156, 1,1-Dimethylethyl {5-[(5-chloro-2-phenyl-1-benzofuran-7-yl)methyl]-2-furanyl}carbamate] | did not show activity |
